From US7611858B1, “Detection of cannabinoid receptor biomarkers and uses thereof” (University of Florida Research Foundation, Inc., priority 2004, dated 2009)

Columns and labels:
[1] = test system: AC133 positive neural progenitors; experiment: clonal generation of neurospheres from dissociated mouse postnatal forebrain; assay type: cell-based
[2] = test system: clonal neurospheres from postnatal rat forebrain; assay type: cell-based; details: at 1 μM
[3] = test system: AC133 and nestin expression in brain cortex; experiment: neural stem cell markers in brain after traumatic brain injury in mice treated with 2-AG (blots); assay type: in vivo
[4] = i.p. 5 mg/kg daily, 3 hr, 24 hr and 5 days post injury
[5] = treatment post injury 5 mg/kg i.p. daily

| Compound | clonal generation of neurospheres [1] | clonal neurospheres from postnatal rat forebrain (FIG. 8A) [2] | AC133 in brain cortex after TBI (FIG. 6A) [3, 4] | Nestin in brain cortex after TBI (FIG. 6B) [3, 4] | expression of AC133 neural stem cells after traumatic brain injury (FIG. 10A) [3, 5] | expression of nestin in neural stem cells after traumatic brain injury (FIG. 10B) [3, 5] |
| --- | --- | --- | --- | --- | --- | --- |
| CCCCC/C=C\C/C=C\C/C=C\C/C=C\CCCC(=O)OC(CO)CO [2-AG, 2-arachidonoyl glycerol] | instigated clonal generation of neurospheres | abolition | up-regulation | up-regulation | increase of enhanced expression | increase of enhanced expression |
| lysophosphatidic acid [LPA] | instigated clonal generation of mouse neurospheres |  |  |  |  |  |
